Test results reported in the CheMixHub ionic liquid set.

Assay: xn = mol fraction of the nth substance listed
Details: for viscosity: 100 kPa; for electrical conductivity: 298.15 K, 101 kPa

COCCOCCOC + CCCC[n+]1ccn(C)c1.F[B-](F)(F)F
Details | viscosity [mPa·s]
283.15 K, x2 = 0.05926 | 2.33
283.15 K, x2 = 0.1017 | 2.93
283.15 K, x2 = 0.193 | 4.788
283.15 K, x2 = 0.2925 | 8.04
283.15 K, x2 = 0.3989 | 14.34
283.15 K, x2 = 0.4972 | 23.78
283.15 K, x2 = 0.5761 | 35.48
283.15 K, x2 = 0.6977 | 62.63
283.15 K, x2 = 0.7915 | 93.5
283.15 K, x2 = 0.8978 | 151.1
283.15 K, x2 = 0.9426 | 187.3
293.15 K, x2 = 0.05427 | 1.895
293.15 K, x2 = 0.1026 | 2.374
293.15 K, x2 = 0.195 | 3.051
293.15 K, x2 = 0.2987 | 6.258
293.15 K, x2 = 0.3891 | 9.33
293.15 K, x2 = 0.4902 | 16.39
293.15 K, x2 = 0.5631 | 22.79
293.15 K, x2 = 0.6762 | 35.31
293.15 K, x2 = 0.7902 | 55.27
293.15 K, x2 = 0.8969 | 86
293.15 K, x2 = 0.9436 | 103.9
303.15 K, x2 = 0.04967 | 1.214
303.15 K, x2 = 0.05867 | 1.133
303.15 K, x2 = 0.1027 | 1.519
303.15 K, x2 = 0.1925 | 2.927
303.15 K, x2 = 0.2857 | 4.426
303.15 K, x2 = 0.4003 | 7.339
303.15 K, x2 = 0.4952 | 10.86
303.15 K, x2 = 0.5755 | 15.38
303.15 K, x2 = 0.6993 | 24.97
303.15 K, x2 = 0.7943 | 35.15
303.15 K, x2 = 0.8999 | 51.8
303.15 K, x2 = 0.9387 | 59.7
313.15 K, x2 = 0.08858 | 1.238
313.15 K, x2 = 0.168 | 1.472
313.15 K, x2 = 0.2583 | 2.155
313.15 K, x2 = 0.3563 | 3.486
313.15 K, x2 = 0.4578 | 5.566
313.15 K, x2 = 0.5473 | 8.36
313.15 K, x2 = 0.6683 | 12.94
313.15 K, x2 = 0.7655 | 18.99
313.15 K, x2 = 0.8894 | 28.19
313.15 K, x2 = 0.9307 | 31.25

O=P([O-])([O-])[O-].[Na+].[Na+].[Na+] + CCCCCCCCCCCC[N+](C)(C)C.[Br-] + O
Details | electrical conductivity [S/m]
x2 = 0, x1 = 0.0001802 | 0.411
x2 = 0, x1 = 0.001799 | 2.052
x2 = 5.23e-06, x1 = 0.0001802 | 0.411
x2 = 7.86e-06, x1 = 0.001799 | 2.048
x2 = 1.209e-05, x1 = 0.0001802 | 0.4123
x2 = 1.591e-05, x1 = 0.001799 | 2.047
x2 = 1.895e-05, x1 = 0.0001802 | 0.4139
x2 = 2.633e-05, x1 = 0.001799 | 2.047
x2 = 2.887e-05, x1 = 0.0001802 | 0.4171
x2 = 3.573e-05, x1 = 0.0001802 | 0.4194
x2 = 3.912e-05, x1 = 0.001799 | 2.048
x2 = 4.223e-05, x1 = 0.0001802 | 0.4213
x2 = 4.89e-05, x1 = 0.0001802 | 0.4235
x2 = 5.21e-05, x1 = 0.001799 | 2.049
x2 = 5.756e-05, x1 = 0.0001802 | 0.4261
x2 = 6.605e-05, x1 = 0.0001802 | 0.429
x2 = 6.673e-05, x1 = 0.001799 | 2.051
x2 = 7.416e-05, x1 = 0.0001801 | 0.4318
x2 = 8.172e-05, x1 = 0.001799 | 2.054
x2 = 8.246e-05, x1 = 0.0001801 | 0.4346
x2 = 9.058e-05, x1 = 0.0001801 | 0.4375
x2 = 9.852e-05, x1 = 0.0001801 | 0.4405
x2 = 9.872e-05, x1 = 0.001799 | 2.059
x2 = 0.000107, x1 = 0.0001801 | 0.444
x2 = 0.0001133, x1 = 0.001799 | 2.063
x2 = 0.0001155, x1 = 0.0001801 | 0.4477
x2 = 0.0001247, x1 = 0.0001801 | 0.4515
x2 = 0.0001301, x1 = 0.001799 | 2.067
x2 = 0.0001324, x1 = 0.0001801 | 0.4544
x2 = 0.0001404, x1 = 0.0001801 | 0.4573
x2 = 0.000147, x1 = 0.001798 | 2.07
x2 = 0.000148, x1 = 0.0001801 | 0.4602
x2 = 0.0001566, x1 = 0.0001801 | 0.4633
x2 = 0.0001632, x1 = 0.001798 | 2.074
x2 = 0.0001658, x1 = 0.0001801 | 0.4669
x2 = 0.000175, x1 = 0.0001801 | 0.4702
x2 = 0.0001791, x1 = 0.001798 | 2.078
x2 = 0.0001842, x1 = 0.0001801 | 0.4735
x2 = 0.0001934, x1 = 0.0001801 | 0.4766
x2 = 0.0001954, x1 = 0.001798 | 2.081
x2 = 0.0002026, x1 = 0.0001801 | 0.4791
x2 = 0.0002111, x1 = 0.001798 | 2.083
x2 = 0.0002116, x1 = 0.0001801 | 0.481
x2 = 0.0002205, x1 = 0.0001801 | 0.4824
x2 = 0.0002268, x1 = 0.001798 | 2.086
x2 = 0.0002327, x1 = 0.0001801 | 0.4842
x2 = 0.0002427, x1 = 0.001798 | 2.089
x2 = 0.0002436, x1 = 0.0001801 | 0.4857
x2 = 0.0002524, x1 = 0.0001801 | 0.4866
x2 = 0.0002579, x1 = 0.001798 | 2.091
x2 = 0.0002612, x1 = 0.0001801 | 0.4876
x2 = 0.0002726, x1 = 0.0001801 | 0.489
x2 = 0.0002731, x1 = 0.001798 | 2.094
x2 = 0.0002851, x1 = 0.0001801 | 0.4902
x2 = 0.0002866, x1 = 0.001798 | 2.096
x2 = 0.0002984, x1 = 0.0001801 | 0.4919
x2 = 0.0003017, x1 = 0.001798 | 2.099
x2 = 0.0003094, x1 = 0.0001801 | 0.4931
x2 = 0.0003171, x1 = 0.001798 | 2.101
x2 = 0.0003315, x1 = 0.001798 | 2.103
x2 = 0.0003393, x1 = 0.0001801 | 0.4959
x2 = 0.0003465, x1 = 0.001798 | 2.105
x2 = 0.0003608, x1 = 0.001798 | 2.108
x2 = 0.0003754, x1 = 0.001798 | 2.11
x2 = 0.0003895, x1 = 0.001798 | 2.112
x2 = 0.000403, x1 = 0.001798 | 2.114
x2 = 0.0004205, x1 = 0.001798 | 2.117
